Results as given in ChEMBL document CHEMBL5252593, “Therapeutic significance of molecular hybrids for breast cancer research and treatment” (RSC Med Chem, 2023).

Assays:
MCF7 [1] = experiment: Antiproliferative activity against human MCF7 cells assessed as reduction in cell viability; type: functional, cell-based
MDA-MB-231 [2] = experiment: Antiproliferative activity against human MDA-MB-231 cells assessed as inhibition of cell growth incubated for 72 hrs by Celltiter Glo assay; type: functional, cell-based; settings: MDA-MB-231, 72 h
[3] = target: T1, Prostaglandin G/H synthase 2 (Homo sapiens) (UniProt P35354); experiment: Inhibition of COX-2 (unknown origin) at 50 uM by fluorescence based method relative to control
T1 sequence (whole entry): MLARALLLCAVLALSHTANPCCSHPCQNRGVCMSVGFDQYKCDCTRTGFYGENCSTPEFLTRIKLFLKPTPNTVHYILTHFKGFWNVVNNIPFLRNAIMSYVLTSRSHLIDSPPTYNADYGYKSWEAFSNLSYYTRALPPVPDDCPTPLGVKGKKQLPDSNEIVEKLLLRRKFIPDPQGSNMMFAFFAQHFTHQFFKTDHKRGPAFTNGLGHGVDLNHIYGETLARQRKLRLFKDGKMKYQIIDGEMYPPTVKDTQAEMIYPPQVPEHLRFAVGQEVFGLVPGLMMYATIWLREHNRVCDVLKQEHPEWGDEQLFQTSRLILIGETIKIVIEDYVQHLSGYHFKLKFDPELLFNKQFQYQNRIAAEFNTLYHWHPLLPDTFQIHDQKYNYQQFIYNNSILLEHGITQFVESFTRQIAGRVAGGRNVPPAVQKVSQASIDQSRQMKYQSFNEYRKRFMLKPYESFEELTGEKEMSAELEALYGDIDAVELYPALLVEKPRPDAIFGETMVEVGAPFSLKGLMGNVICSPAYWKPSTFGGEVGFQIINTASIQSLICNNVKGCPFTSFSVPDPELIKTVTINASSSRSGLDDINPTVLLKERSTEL

HEK293 [4] = experiment: Antiproliferative activity against human HEK293 cells assessed as inhibition of cell growth measured after 24 hrs by MTT assay; type: functional, cell-based; settings: HEK293, 24 h
MDA-MB-231 [5] = experiment: Antiproliferative activity against human MDA-MB-231 cells assessed as inhibition of cell growth by MTT assay; type: functional, cell-based
MCF7 [6] = experiment: Antiproliferative activity against human MCF7 cells assessed as inhibition of cell proliferation incubated for 24 hrs by MTT assay; type: functional, cell-based; settings: MCF7, 24 h
MCF7 [7] = experiment: Antiproliferative activity against human MCF7 cells assessed as reduction in cell viability measured after 24 hrs by MTT assay; type: functional, cell-based; settings: MCF7, 24 h
MCF7 [8] = experiment: Antiproliferative activity against human MCF7 cells assessed as cell growth inhibition measured after 24 hrs by MTT assay; type: functional, cell-based; settings: MCF7, 24 h
HEK293 [9] = experiment: Antiproliferative activity against human HEK293 cells assessed as inhibition of cell proliferation measured after 24 hrs by MTT assay; type: functional, cell-based; settings: HEK293, 24 h
MDA-MB-231 [10] = experiment: Antiproliferative activity against human MDA-MB-231 cells assessed as reduction in cell viability measured after 48 hrs by MTT assay; type: functional, cell-based; settings: MDA-MB-231, 48 h
T47D = experiment: Antiproliferative activity against human T47D cells assessed as reduction in cell viability measured after 48 hrs by MTT assay; type: functional, cell-based
C-33-A = experiment: Antiproliferative activity against human C-33-A cells assessed as reduction in cell viability measured after 48 hrs by MTT assay; type: functional, cell-based
MCF7 [11] = experiment: Antiproliferative activity against human MCF7 cells assessed as reduction in cell viability measured after 48 hrs by MTT assay; type: functional, cell-based; settings: MCF7, 48 h
MDA-MB-361 = experiment: Antiproliferative activity against human MDA-MB-361 cells assessed as reduction in cell viability measured after 48 hrs by MTT assay; type: functional, cell-based; settings: MDA-MB-361, 48 h
MCF-10A = experiment: Antiproliferative activity against human MCF-10A cells assessed as reduction in cell proliferation incubated for 48 hrs by MTT assay; type: functional, cell-based
[12] = Selectivity index, ratio of IC50 for antiproliferative activity against human MCF-10A cells to IC50 for antiproliferative activity against human MCF7 cells by MTT assay; type: toxicity, cell-based; settings: MCF-10A cells versus MCF7 cells, read-out: Selectivity Index
MCF7 [13] = experiment: Antiproliferative activity against Doxorubicin-resistant human MCF7 cells assessed as reduction in cell proliferation incubated for 48 hrs by MTT assay; type: functional, cell-based; settings: MCF7, 48 h
MCF7 [14] = experiment: Antiproliferative activity against human MCF7 cells assessed as reduction in cell proliferation incubated for 48 hrs by MTT assay; type: functional, cell-based; settings: MCF7, 48 h
MDA-MB-231 [15] = experiment: Antiproliferative activity against human MDA-MB-231 cells assessed as reduction in cell proliferation incubated for 48 hrs by MTT assay; type: functional, cell-based; settings: MDA-MB-231, 48 h
MDA-MB-231 [16] = experiment: Antiproliferative activity against human MDA-MB-231 cells assessed as inhibition of cell proliferation incubated for 24 hrs by MTT assay; type: functional, cell-based; settings: MDA-MB-231, 24 h
MDA-MB-231 [17] = experiment: Antiproliferative activity against human MDA-MB-231 cells assessed as reduction in cell viability measured after 24 hrs by MTT assay; type: functional, cell-based; settings: MDA-MB-231, 24 h

CCOC(=O)[C@H]1Cc2c([nH]c3ccccc23)CN1Cc1cn(CCCOc2ccc(C(=O)/C=C/c3ccc(F)cc3)cc2)nn1
IC50 (MCF7 [1]): 10.3 µM

OC[C@H]1O[C@@H](Cc2cc(-c3c[nH]c4ccccc34)on2)[C@H](O)[C@@H](O)[C@@H]1O
IC50 (MDA-MB-231 [2]): 35.5 µM | inhibition [3]: 95%

Cc1ncc([N+](=O)[O-])n1Cc1cn(CCCCN2C(=O)C(=O)c3cc(Cl)ccc32)nn1
IC50 (HEK293 [4]): 12.1 µM

O=C1C(=O)N(CCn2cc(COCCOc3ccc(/C(=C(/CCCl)c4ccccc4)c4ccccc4)cc3)nn2)c2c(Br)cc(Br)cc21
IC50 (MDA-MB-231 [5]): 48.5 µM

COc1ccc2c3c([nH]c2c1)[C@]12CC(C)(C)[C@@]4(C(=O)N1CC3)c1[nH]c3cc(OC)ccc3c1CCN24
IC50 (MCF7 [6]): 38.5 µM

COc1cccc(OC)c1C1CC(c2ccc(OCc3cn(CCCN4C(=O)c5cccc6cccc(c56)C4=O)nn3)cc2)=NN1C(C)=O (stereo not drawn)
IC50 (MCF7 [7]): 62.2 µM | IC50 (MCF7 [8]): 62.2 µM | IC50 (HEK293 [9]): > 100 µM

C[C@H]1[C@@H](CC(=O)OC[C@H]2C[C@H]3[C@@H]4CCc5cc(OCc6ccccc6)ccc5[C@H]4CC[C@]3(C)[C@H]2O)OC2O[C@]3(C)CC[C@H]4[C@H](C)CC[C@@H]1[C@@]24OO3 (stereo partly drawn)
EC50 (MDA-MB-231 [10]): 860 nM | EC50 (T47D): 930 nM | EC50 (C-33-A): 150 nM | EC50 (MCF7 [11]): 450 nM | EC50 (MDA-MB-361): 180 nM

CCO/N=C1/C(=O)N(CCCOC2O[C@@H]3O[C@@]4(C)CC[C@H]5[C@H](C)CC[C@@H]([C@H]2C)[C@@]35OO4)c2ccc(F)cc21 (stereo partly drawn)
IC50 (MCF-10A): > 100 µM | selectivity ratio [12]: > 1.3 | IC50 (MCF7 [13]): 21.7 µM | IC50 (MCF7 [14]): 20.7 µM | IC50 (MDA-MB-231 [15]): 23.9 µM

CCOC(=O)[C@H]1Cc2c([nH]c3ccccc23)CN1Cc1cn(CCCN2C(=O)C(=O)c3ccccc32)nn1
IC50 (MDA-MB-231 [16]): > 100 µM | IC50 (MCF7 [6]): 37.4 µM

CCOC(=O)[C@H]1Cc2c([nH]c3ccccc23)CN1Cc1cn(CCCCCOc2ccc(C(=O)/C=C/c3cc(OC)c(OC)c(OC)c3)cc2)nn1
IC50 (MDA-MB-231 [17]): 22 µM | IC50 (MDA-MB-231 [2]): 22.3 µM
